Laboratory results: patent US3931262A, “Hydrophilic and difficultly volatile biocidal triorganotin compounds” (priority 1972, dated 1976)

How the values were obtained:
[1] = in water / neutral medium / strongly acid or alkaline pH
[2] = test system: Penicillium funiculosum CEB 329631; assay: Microbiological test; type: cell-based
Excerpt: (§1) In the test for microbiocidal activity the compounds listed hereinbelow yielded the values indicated in the following Table: No. Compound __________________________________________________________________________ 1 (n--C4 H9)3 Sn--S--CH2 --CH2 --COO.(CH 2 --CH2 --O--n H(n~9) 2 (C6 H5)3 Sn--S--(CH2)3 --SO3.Na CH3 .vertline. 3 --Sn--S--CH2 --CH2 --COO--(CH2 --CH2 --O)n.H(n ~9) .vertline. CH3 4 (n--C4 H9)3 Sn--S--CH2 --COO.H.N(CH2 CH2 OH)3 5 (n--C4 H9)3 Sn--S--(CH2)2 --COO.H.N(CH2 CH2 OH)3 6 (n--C4 H9)3 Sn--S--CH2 --CO.N(CH2 CH2 OH)2 __________________________________________________________________________

Lenzites abietina CBS = assay: Microbiological test; type: cell-based
Excerpt: as §1

Sarcina ureae SMB 81 = assay: Microbiological test; type: cell-based
Excerpt: as §1

[3] = test system: Aspergillus flavus CBS 12662; assay: Microbiological test; type: cell-based
Excerpt: as §1

[4] = test system: Polystictus versicolor EMPA61; assay: Microbiological test; type: cell-based
Excerpt: as §1

Pilz schwarzlich DAP = assay: Microbiological test; type: cell-based
Excerpt: as §1

Hefe rot DAP = assay: Microbiological test; type: cell-based
Excerpt: as §1

[5] = test system: Trichoderma viride CEB 3334.2; assay: Microbiological test; type: cell-based
Excerpt: as §1

Coniphora cerebella CBS = assay: Microbiological test; type: cell-based
Excerpt: as §1

[6] = test system: Stachybotrys atra CBS 32465; assay: Microbiological test; type: cell-based
Excerpt: as §1

[7] = test system: Escherichia coli NCTC 8195; assay: Microbiological test; type: cell-based
Excerpt: as §1

[8] = test system: Staphylococcus aureus SG 511 M6; assay: Microbiological test; type: cell-based
Excerpt: as §1

[9] = test system: Aspergillus niger ATCC 6275; assay: Microbiological test; type: cell-based
Excerpt: as §1

Paecilomyces varioti CBS = assay: Microbiological test; type: cell-based
Excerpt: as §1

[10] = test system: Bacillus subtilis NCTC 6460; assay: Microbiological test; type: cell-based
Excerpt: as §1

Salmonella pullorum VBIZ = assay: Microbiological test; type: cell-based
Excerpt: as §1

[11] = test system: Salmonella gallinarum VBIB; assay: Microbiological test; type: cell-based
Excerpt: as §1

Fusarium spec. DAP = assay: Microbiological test; type: cell-based
Excerpt: as §1

[12] = test system: Staphylococcus aureus SG 511; assay: Microbiological test; type: cell-based
Excerpt: as §1

[13] = test system: Alternaria tenuis CBS 10426; assay: Microbiological test; type: cell-based
Excerpt: as §1

[14] = test system: Pseudomonas fluorescens NCTC 4755; assay: Microbiological test; type: cell-based
Excerpt: as §1

[15] = test system: Escherichia coli RP 45410; assay: Microbiological test; type: cell-based
Excerpt: as §1

[16] = test system: Corynebacterium diphteroides FUR; assay: Microbiological test; type: cell-based
Excerpt: as §1

[17] = test system: Pasteurella multocida K753; assay: Microbiological test; type: cell-based
Excerpt: as §1

Candida albicans CBS = assay: Microbiological test; type: cell-based
Excerpt: as §1

[18] = test system: Penicillium expansum SMC 36; assay: Microbiological test; type: cell-based
Excerpt: as §1

[19] = test system: Chaetomium globosum CBS 14851; assay: Microbiological test; type: cell-based
Excerpt: as §1

[20] = test system: Arizona paracolon 7:1.7,8; assay: Microbiological test; type: cell-based
Excerpt: as §1

[21] = test system: Streptococcus faecalis NCTC 8619; assay: Microbiological test; type: cell-based
Excerpt: as §1

Trichophyton gypseum CBS = assay: Microbiological test; type: cell-based
Excerpt: as §1

Fusarium oxysporum CBS = assay: Microbiological test; type: cell-based
Excerpt: as §1

Hefe DAP = assay: Microbiological test; type: cell-based
Excerpt: as §1

[22] = test system: Mycobacterium phlei CITM 61; assay: Microbiological test; type: cell-based
Excerpt: as §1

Poria vaporia CBS = assay: Microbiological test; type: cell-based
Excerpt: as §1

[23] = test system: Pullularia pullulans CBS 10767; assay: Microbiological test; type: cell-based
Excerpt: as §1

[24] = test system: Streptococcus agalactiae M100; assay: Microbiological test; type: cell-based
Excerpt: as §1

[25] = test system: Salmonella cholerae-suis VBIB; type: cell-based

CCC[CH2][Sn]([CH2]CCC)([CH2]CCC)[O]S(N)(=O)=O [tributyltin sulphaminate]
stability to hydrolysis (in words) [1]: hydrolytically split off in water at once

S-tri-n-butyl-tin-β-mercaptopropionic acid polyethylene glycol ester [Compound 1]
Activity range [2]: 30 ppm
Activity range (Lenzites abietina CBS): 10 ppm
Activity range (Sarcina ureae SMB 81): 10 ppm
Activity range [3]: 30 ppm
Activity range [4]: 100 ppm
Activity range (Pilz schwarzlich DAP): 10 ppm
Activity range (Hefe rot DAP): 10 ppm
Activity range [5]: 100 ppm
Activity range (Coniphora cerebella CBS): 10 ppm
Activity range [6]: 10 ppm
Activity range [7]: 10 ppm
Activity range [8]: 10 ppm
Activity range [9]: 30 ppm
Activity range (Paecilomyces varioti CBS): 30 ppm
Activity range [10]: 10 ppm
Activity range (Salmonella pullorum VBIZ): > 300 ppm
Activity range [11]: > 300 ppm
Activity range (Fusarium spec. DAP): 30 ppm
Activity range [12]: 10 ppm
Activity range [13]: 30 ppm
Activity range [14]: 10 ppm
Activity range [15]: 10 ppm
Activity range [16]: 10 ppm
Activity range [17]: 10 ppm
Activity range (Candida albicans CBS): 30 ppm
Activity range [18]: 30 ppm
Activity range [19]: 10 ppm
Activity range [20]: > 300 ppm
Activity range [21]: 10 ppm
Activity range (Trichophyton gypseum CBS): 30 ppm
Activity range (Fusarium oxysporum CBS): 30 ppm
Activity range (Hefe DAP): 10 ppm
Activity range [22]: 3 ppm
Activity range (Poria vaporia CBS): 100 ppm
Activity range [23]: 10 ppm
Activity range [24]: 3 ppm
Activity range [25]: > 300 ppm
